These results are taken from ChEMBL document CHEMBL1201862, “PubChem BioAssay data set” (2004).

The nature of test [1]: cytotoxicity toward HT-29 cells – cell-based, CellTiter-Glo luminescence, IC50, dose response (AID 1117330). The format is functional. On the technique in general: ATP-based viability assays read luminescence as a measure of living cells.
Test [2] has as its target T1, Heat shock factor protein 1 (Mus musculus, UniProt P38532).
T1 sequence (P38532 whole entry): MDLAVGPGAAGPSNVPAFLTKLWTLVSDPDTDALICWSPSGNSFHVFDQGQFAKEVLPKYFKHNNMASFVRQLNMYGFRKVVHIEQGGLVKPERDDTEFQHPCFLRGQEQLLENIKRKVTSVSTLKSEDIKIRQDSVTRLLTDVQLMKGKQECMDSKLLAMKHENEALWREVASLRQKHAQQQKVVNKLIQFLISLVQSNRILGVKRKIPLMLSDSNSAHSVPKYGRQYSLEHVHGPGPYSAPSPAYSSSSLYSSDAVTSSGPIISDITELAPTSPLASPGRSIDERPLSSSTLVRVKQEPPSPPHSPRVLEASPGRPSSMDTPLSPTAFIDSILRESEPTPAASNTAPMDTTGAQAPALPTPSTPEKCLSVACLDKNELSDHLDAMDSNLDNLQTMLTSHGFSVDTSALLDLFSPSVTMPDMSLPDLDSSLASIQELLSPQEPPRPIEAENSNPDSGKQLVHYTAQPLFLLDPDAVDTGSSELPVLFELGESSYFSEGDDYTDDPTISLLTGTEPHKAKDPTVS
The test is described as follows: enhancement of HSF1-driven luciferase signal – cell-based, NIH3T3, luminescence, dose retest, confirmation (AID 435004).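 Also: stress induced by proteasome inhibitor MG132 added 30 min after compound; luciferase reporter driven by HSF1 response element in NIH3T3 cells; actives raise luminescence as potentiators of the MG132 stress response.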 The test is classed as functional.

Test [3] has as its target T2, Zinc finger protein mex-5 (Caenorhabditis elegans, UniProt Q9XUB2).
T2 sequence (Q9XUB2 whole entry): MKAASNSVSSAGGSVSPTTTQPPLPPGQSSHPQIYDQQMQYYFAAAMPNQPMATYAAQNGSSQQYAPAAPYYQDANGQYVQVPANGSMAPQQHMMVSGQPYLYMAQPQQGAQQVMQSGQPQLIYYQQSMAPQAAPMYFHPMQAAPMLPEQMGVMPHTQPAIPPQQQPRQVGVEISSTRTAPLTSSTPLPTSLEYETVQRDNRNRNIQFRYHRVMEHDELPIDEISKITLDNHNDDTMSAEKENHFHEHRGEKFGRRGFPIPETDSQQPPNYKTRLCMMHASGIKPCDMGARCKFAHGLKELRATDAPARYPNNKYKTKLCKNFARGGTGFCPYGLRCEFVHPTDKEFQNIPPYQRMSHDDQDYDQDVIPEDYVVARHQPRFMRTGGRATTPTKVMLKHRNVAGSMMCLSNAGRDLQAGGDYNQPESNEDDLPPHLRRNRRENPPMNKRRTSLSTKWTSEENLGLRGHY
Description: potency of MEX-5 RNA-binding blockers – biochemical, C. elegans, fluorescence polarization, dose response (AID 1960). (In fluorescence polarisation assays a small probe gives low polarisation when free and higher when bound to something large.)

In test [4] the test system is BJ. The test is described as follows: BJ-TERT-LT-ST fibroblast viability loss – cell-based, RAS-independent, luminescence, dose response (AID 1935).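 Also: BJ fibroblasts immortalized with TERT plus LT and ST oncogenes.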 The format is functional. The settings on record: Homo sapiens.
Test [5] deals with T3, Sentrin-specific protease 6 (Homo sapiens, UniProt Q9GZR1).
T3 sequence (Q9GZR1 whole entry): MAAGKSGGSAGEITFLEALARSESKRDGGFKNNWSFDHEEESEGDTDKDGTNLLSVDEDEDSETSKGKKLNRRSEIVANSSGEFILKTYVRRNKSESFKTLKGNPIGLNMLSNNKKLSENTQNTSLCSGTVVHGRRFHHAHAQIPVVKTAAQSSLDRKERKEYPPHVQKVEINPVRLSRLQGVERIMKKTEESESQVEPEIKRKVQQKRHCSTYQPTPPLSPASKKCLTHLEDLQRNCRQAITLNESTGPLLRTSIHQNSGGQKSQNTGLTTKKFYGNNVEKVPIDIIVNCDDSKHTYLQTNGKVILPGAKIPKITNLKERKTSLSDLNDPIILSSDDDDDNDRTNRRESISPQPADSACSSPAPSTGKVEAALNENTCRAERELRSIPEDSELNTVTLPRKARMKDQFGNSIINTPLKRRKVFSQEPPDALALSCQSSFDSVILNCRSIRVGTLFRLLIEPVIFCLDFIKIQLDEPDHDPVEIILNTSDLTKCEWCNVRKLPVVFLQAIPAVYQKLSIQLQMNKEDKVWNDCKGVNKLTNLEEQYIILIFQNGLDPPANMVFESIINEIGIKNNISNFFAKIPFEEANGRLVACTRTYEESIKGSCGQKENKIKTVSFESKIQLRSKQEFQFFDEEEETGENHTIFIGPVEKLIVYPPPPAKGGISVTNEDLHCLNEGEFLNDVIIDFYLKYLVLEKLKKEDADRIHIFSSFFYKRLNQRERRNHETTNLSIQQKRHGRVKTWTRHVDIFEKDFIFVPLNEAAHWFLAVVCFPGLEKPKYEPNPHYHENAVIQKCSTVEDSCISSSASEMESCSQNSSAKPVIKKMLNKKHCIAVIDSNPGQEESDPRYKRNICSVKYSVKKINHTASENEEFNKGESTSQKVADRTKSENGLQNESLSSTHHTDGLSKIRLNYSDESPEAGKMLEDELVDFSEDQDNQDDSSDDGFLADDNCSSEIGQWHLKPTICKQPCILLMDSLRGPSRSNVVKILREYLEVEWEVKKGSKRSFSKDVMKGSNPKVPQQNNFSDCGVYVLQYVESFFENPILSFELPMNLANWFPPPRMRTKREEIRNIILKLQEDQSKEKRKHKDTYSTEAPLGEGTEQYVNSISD
Description: SAR Analysis of small molecule inhibitors of Sentrin-specific protease 6 (SENP6) using a Luminescent assay. [Related pubchem assays (depositor defined):AID2582, AID2599]. The format is functional.

For test [6], the target named is Serine/threonine-protein phosphatase PP1-alpha catalytic subunit (Homo sapiens, UniProt P62136). The test is described as follows: inhibition of protein phosphatase 1 activity – biochemical, fluorescence, dose response (AID 2394).
Sequence of Serine/threonine-protein phosphatase PP1-alpha catalytic subunit (P62136 whole entry): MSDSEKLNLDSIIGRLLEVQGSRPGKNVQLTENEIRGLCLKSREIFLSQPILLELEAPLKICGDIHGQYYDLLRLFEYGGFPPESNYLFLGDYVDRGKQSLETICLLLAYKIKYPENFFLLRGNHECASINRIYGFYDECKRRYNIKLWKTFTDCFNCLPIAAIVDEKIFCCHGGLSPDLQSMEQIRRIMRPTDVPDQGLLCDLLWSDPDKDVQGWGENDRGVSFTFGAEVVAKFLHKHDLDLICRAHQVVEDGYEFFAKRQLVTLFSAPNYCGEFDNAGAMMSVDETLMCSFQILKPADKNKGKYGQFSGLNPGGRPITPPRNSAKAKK
In test [7] the target is T4, Caspase-6 (Homo sapiens, UniProt P55212).
T4 sequence (P55212 whole entry): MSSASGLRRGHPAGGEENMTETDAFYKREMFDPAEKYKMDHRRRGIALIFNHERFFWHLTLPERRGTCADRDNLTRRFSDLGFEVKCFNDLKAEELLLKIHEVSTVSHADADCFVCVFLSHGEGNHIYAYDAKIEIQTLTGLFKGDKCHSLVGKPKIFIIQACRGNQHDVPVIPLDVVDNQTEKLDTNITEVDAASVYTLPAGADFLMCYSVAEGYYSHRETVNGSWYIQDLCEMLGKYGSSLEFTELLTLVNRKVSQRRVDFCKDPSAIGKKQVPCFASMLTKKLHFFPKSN
The test is described as follows: inhibition of CASP6 peptide cleavage – biochemical, VEID-R110 fluorescence, cherry-pick, dose response (AID 720632).

A word on the IC50: it is the midpoint of a concentration-inhibition curve. A word on the EC50: it is the concentration that produces a half-maximal response. The term AC50 denotes the concentration giving half of the maximal activity seen.

Active and inactive are the calls of the source.

Consider `Cc1cc2nc3ccc(N(C)C)cc3[s+]c2cc1N` [TOLONIUM CHLORIDE], for which the IC50 in test [1] is 5.06 µM (inactive). Moreover, the EC50 in test [2] is > 260 µM (inactive); in test [3], 35.6 µM (active); in test [4], 9.19 µM (inconclusive).

Consider `Oc1ccc(/C=N/Nc2cc(N3CCCC3)nc(N3CCCC3)n2)cc1O`, for which the IC50 in test [5] is 10.5 µM (active).

As to `CCCOc1cc2c(C#N)c(N3CCCC3)nc(N)c2c(N)n1`, the IC50 in test [6] was > 67 µM (not active). Besides, in test [7], the AC50 is 16.9 µM (active).
